Where a chain is given by its changes, count along the chain named.
Legend:
[1] = test system: AT1 receptor; parameters: method as in PMID 15785012; conditions: cited from earlier work
[2] = test system: human coronary artery smooth muscle cells; parameters: method as in PMID 15785012; conditions: as well as a stably expressed AT1 receptor cell line; cited from earlier work
[3] = molecular target: T1, AT1 L112A receptor (Rattus norvegicus, UniProt P25095, L112A); assay: Immunoblotting of ERK 1/2 activation in COS7 cells overexpressing AT1-L112A receptor; type: cell-based; conditions: 1 µM ligands or 0.1 µM Ang II, 10 min, n = 5, vs. (-)
T1 construct: expressed in transfected cells; host or cells: COS7
T1 sequence (P25095 1-359 L112A): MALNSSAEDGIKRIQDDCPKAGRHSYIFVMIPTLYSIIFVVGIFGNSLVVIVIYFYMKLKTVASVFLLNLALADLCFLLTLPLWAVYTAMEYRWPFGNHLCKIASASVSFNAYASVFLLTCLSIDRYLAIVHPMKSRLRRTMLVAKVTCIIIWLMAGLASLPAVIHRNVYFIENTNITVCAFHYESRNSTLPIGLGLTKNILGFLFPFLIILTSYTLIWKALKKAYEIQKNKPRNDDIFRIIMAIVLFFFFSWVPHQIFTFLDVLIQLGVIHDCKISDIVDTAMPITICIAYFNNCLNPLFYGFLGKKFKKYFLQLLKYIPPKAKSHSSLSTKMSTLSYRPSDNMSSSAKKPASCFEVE
Experimental: (§1) The synthetic rat AT1 receptor gene, which was cloned in the shuttle expression vector pMT-2, was used for expression and mutagenesis, as described previously. […] In the experiments, cells were grown without a cell-growth supplement. To express the AT1 receptor protein, 10 µg of purified plasmid DNA per 10^7 cells was used in the transfection. Wild-type and mutated AT1 receptors were transiently transfected into cells using Lipofectamine 2000 liposomal reagent (Roche Applied Science, Penzberg, Germany). Cells were plated and grown and were 70–90% confluent at the time of transfection. We incubated plasmid DNA (10 µg)–lipid (10 µL) complexes for 5 min at room temperature and added and incubated the complexes with cells for 24 h. We then analyzed the parameters in transfected cells. […] Transfected cells that had been cultured for 48–72 h were harvested. Cell membranes were prepared using the nitrogen Parr bomb disruption or freeze–thaw methods.
(§2) In in vitro studies, ERK 1/2 activation by 1 µM ligands or 0.1 µM Ang II incubated for 10 min was measured using COS7 cells that overexpressed AT1 wild-type and mutant receptors. ERK activity was measured in cells maintained for 18 h in DMEM containing 0.1% serum. At the end of the stimulation, the culture medium was removed by aspiration, the cells were washed with ice-cold phosphate-buffered saline, and the dishes were frozen in liquid nitrogen. The cells were scraped using a scraper after melting, and the scraped cells were transferred to a tube. We homogenized the cells in lysis buffer plus protease inhibitors and determined the protein concentration using the bicinchoninic acid method. […] We fractionated total proteins using sodium dodecyl sulfate polyacrylamide gel electrophoresis; we then transferred the proteins to a Hybond nitrocellulose membrane and blocked the blotted membranes with 10% bovine serum albumin in tris-buffered saline buffer (50 mM Tris–HCl pH 7.6, 150 mM NaCl) for 1 h at room temperature. […] An enhanced chemiluminescent substrate system (Amersham, Buckinghamshire, UK) was used. The signal was independently quantified by digital image analysis (ImageJ, National Institutes of Health, Bethesda, MD, USA).

[4] = molecular target: T2, AT1 wild-type receptor (Rattus norvegicus, UniProt P25095); assay: Immunoblotting of ERK 1/2 activation in COS7 cells overexpressing AT1 wild-type receptor; type: cell-based; conditions: AT1 wild-type receptor, COS7 cells; 1 µM ligands or 0.1 µM Ang II, 10 min; n = 5; vs. (-)
T2 construct: expressed in transfected cells; host or cells: COS7
T2 sequence (P25095 1-359): T1 sequence (P25095 1-359 L112A) with A112L
Experimental: as §1, §2

[5] = molecular target: T3, AT1 Q257A receptor (Rattus norvegicus, UniProt P25095, Q257A); assay: Immunoblotting of ERK 1/2 activation in COS7 cells overexpressing AT1-Q257A receptor; type: cell-based; conditions: 1 µM ligands or 0.1 µM Ang II, 10 min, n = 5, vs. (-)
T3 construct: expressed in transfected cells; host or cells: COS7
T3 sequence (P25095 1-359 Q257A): T1 sequence (P25095 1-359 L112A) with A112L, Q257A
Experimental: as §1, with “Cell membranes were prepared using the nitrogen Parr bomb disruption or freeze–thaw methods.” left out
In in vitro studies, ERK 1/2 activation by 1 µM ligands or 0.1 µM Ang II incubated for 10 min was measured using COS7 cells that overexpressed AT1 wild-type and mutant receptors. ERK activity was measured in cells maintained for 18 h in DMEM containing 0.1% serum. […] We homogenized the cells in lysis buffer plus protease inhibitors and determined the protein concentration using the bicinchoninic acid method. […] The signal was independently quantified by digital image analysis (ImageJ, National Institutes of Health, Bethesda, MD, USA).

[6] = molecular target: T3, AT1 Q257A receptor; assay: IP production assay in COS7 cells expressing AT1-Q257A receptor; type: cell-based; conditions: 1 µM ligands or 0.1 µM Ang II, 30 min, n = 5, vs. (-)
Experimental: as §1
(§3) Ligand (such as agonist or antagonist)-induced IP production through the AT1 receptor in transfected COS7 cells transiently expressing the AT1 receptor was measured to evaluate cell signaling as a second messenger for controlling blood pressure, since the increases in the intracellular Ca^2+ concentration were the result of IP accumulation, which indicated vasoconstriction. As a surrogate model with higher levels of AT1 receptor expression, COS7 cells are suitable for IP measurement because it is easy to detect differences in IP production. Cells were labeled for 24 h with [^3H]-myoinositol at 37 °C in DMEM containing 10% FBS. Next, the cells were washed with buffer 3 times and incubated with a medium containing 10 mM LiCl for 20 min; 0.1 µM Ang II or 1 µM ligands were added and incubation was continued for another 30 min at 37 °C. After incubation, the medium was removed, and total soluble IP was extracted from the cells using the perchloric acid extraction method, as described previously. Cells were plated at a field density of 5 × 10^3 cells/cm^2 in 60 mm dishes and cultured in a fresh growth medium at 37 °C in a DMEM 5% CO2 incubator. […] The culture medium was changed 48 h after transfection and 1.5 mL of 1 μCi/mL of [^3H]-myoinositol was added to each 60-mm dish at 37 °C in DMEM containing 10% FBS. After labeling, the cells were washed with buffer 3 times and incubated with a medium containing 10 mM LiCl for 20 min. The indicated concentration of ligands was added and incubation was continued for an additional 30 min at 37 °C. After incubation, the medium was removed, and total soluble IP was extracted from the cells using the perchloric acid extraction method. Total IP production was expressed as the sum of radioactivity, as described previously.

[7] = molecular target: T1, AT1 L112A receptor; assay: IP production assay in COS7 cells expressing AT1-L112A receptor; type: cell-based; conditions: 1 µM ligands or 0.1 µM Ang II, 30 min, n = 5, vs. (-)
Experimental: as §1, §3

[8] = molecular target: T2, AT1 wild-type receptor; assay: IP production assay in COS7 cells expressing AT1 wild-type receptor; type: cell-based; conditions: AT1 wild-type receptor, COS7 cells; 1 µM ligands or 0.1 µM Ang II, 30 min; n = 5; vs. (-)
Experimental: as §1, §3

ERK1/2 activation [3] | ERK1/2 activation [4] | ERK1/2 activation [5] | Effect on IP production [6] | Effect on IP production [7] | Effect on IP production [8] | Substance | Gq-dependent inositol phosphate (IP) production [1] | Gq-independent ERK 1/2 activation [2]
– | – | – | – | – | – | [Sar^1, Ile^4, Ile^8]Ang II | did not increase | still activated
significantly activated ERK1/2 | significantly activated ERK1/2 | significantly activated ERK1/2 | significantly increased IP production | significantly increased IP production | significantly increased IP production | angiotensin II [Ang II, reference compound] | – | –
